# Experimental data reported in US20110071165A1, “Aza- and polyazanthranyl amides and their use as medicaments” (NOVARTIS AG, priority 2000, published 2011).
# Molecular target: VEGFR II (KDR) kinase (Homo sapiens, UniProt P35968)
# Test: Inhibition of KDR kinase activity (33P-ATP incorporation into poly-(Glu4Tyr), phosphocellulose filter)
# Assay type: biochemical
# Conditions: 10 minutes at room temperature; substrate poly-(Glu4Tyr)
# Experimental: Stock solutions Stock solution A: 3 mM ATP in water pH 7.0 (−70° C.) Stock solution B: g-33P-ATP 1mCi/100 μl Stock solution C: poly-(Glu4Tyr) 10 mg/ml in water
# • Substrate solvent: 10 mM DTT, 10 mM manganese chloride 100 mM magnesium chloride • Enzyme solution: 120 mM Tris/HCl, pH 7,5, 10 μM sodium vanadium oxide
# 10 μl of substrate mix [10 μl vol ATP stock solution A+25 μCi g-33P-ATP (ca. 2.5 μl of stock solution B)+30 μl poly-(Glu4Tyr) stock solution C+1.21 ml substrate solvent], 10 μl inhibitor solution [substances corresponding to the dilutions, as a control 3% DMSO in substrate solvent] and 10 μl enzyme solution [11.25 μg enzyme stock solution (KDR or FLT-1 kinase) are diluted at 4° C. in 1.25 ml enzyme solution], are added to a tapering microtitre plate (without protein binding). The mixture is mixed thoroughly and incubated for 10 minutes at room temperature. Subsequently, 10 μl of stop solution (250 mM EDTA, pH 7.0) is added, mixed and 10 μl of the solution transferred to a P 81 phosphocellulose filter. Is is subsequently washed several times in 0.1 M phosphoric acid. The filter paper is dried, coated with MeltiLex and measured in a MicroBeta counter.
# The IC50 values are determined from the concentration of inhibitor required to inhibit the phosphate incorporation to 50% of the uninhibited incorporation after deducting the reference value (EDTA-stopped reaction).
# VEGFR II (KDR) kinase, sequence (P35968 20-1356, species assumed): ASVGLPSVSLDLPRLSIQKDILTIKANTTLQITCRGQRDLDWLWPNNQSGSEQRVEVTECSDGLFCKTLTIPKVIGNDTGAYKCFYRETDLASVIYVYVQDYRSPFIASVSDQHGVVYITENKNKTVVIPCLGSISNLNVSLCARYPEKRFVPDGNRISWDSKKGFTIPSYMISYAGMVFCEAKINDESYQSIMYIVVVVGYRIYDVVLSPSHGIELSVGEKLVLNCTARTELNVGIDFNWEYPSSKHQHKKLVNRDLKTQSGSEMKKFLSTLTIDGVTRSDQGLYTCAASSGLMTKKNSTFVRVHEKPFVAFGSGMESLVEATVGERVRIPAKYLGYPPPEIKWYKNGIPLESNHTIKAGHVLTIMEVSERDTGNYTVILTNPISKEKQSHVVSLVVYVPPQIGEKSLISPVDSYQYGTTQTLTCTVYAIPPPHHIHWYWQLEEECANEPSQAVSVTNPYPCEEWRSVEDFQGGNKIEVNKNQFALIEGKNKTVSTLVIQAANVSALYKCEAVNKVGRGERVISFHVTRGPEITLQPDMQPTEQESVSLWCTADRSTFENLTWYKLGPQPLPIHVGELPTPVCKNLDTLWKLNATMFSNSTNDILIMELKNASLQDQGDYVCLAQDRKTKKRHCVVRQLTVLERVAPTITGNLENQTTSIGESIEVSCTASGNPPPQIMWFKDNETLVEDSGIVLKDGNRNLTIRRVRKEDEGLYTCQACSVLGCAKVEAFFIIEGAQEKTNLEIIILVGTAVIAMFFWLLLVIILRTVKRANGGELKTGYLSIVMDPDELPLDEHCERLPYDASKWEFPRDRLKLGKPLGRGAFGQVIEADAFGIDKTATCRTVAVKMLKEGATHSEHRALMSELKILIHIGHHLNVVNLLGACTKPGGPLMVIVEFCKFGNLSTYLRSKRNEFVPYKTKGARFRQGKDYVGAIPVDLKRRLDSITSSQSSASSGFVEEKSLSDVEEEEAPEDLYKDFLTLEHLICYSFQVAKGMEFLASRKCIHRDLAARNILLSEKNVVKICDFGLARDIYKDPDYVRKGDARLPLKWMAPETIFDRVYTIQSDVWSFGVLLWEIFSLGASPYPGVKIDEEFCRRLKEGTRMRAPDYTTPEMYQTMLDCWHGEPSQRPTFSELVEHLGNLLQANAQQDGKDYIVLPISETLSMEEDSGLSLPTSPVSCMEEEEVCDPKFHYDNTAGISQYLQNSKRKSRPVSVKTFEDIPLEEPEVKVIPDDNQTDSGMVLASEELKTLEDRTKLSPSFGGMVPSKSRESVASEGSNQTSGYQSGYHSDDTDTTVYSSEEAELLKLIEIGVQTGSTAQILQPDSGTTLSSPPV
row,IC50,SMILES
1,100 nM,"O=C(Nc1cc2ccccc2cn1)c1cncnc1NCc1ccncc1 [Example 2.0, N-isoquinolin-3-yl-4-[(4-pyridyl)methyl]amino-pyrimidine-5-carboxylic acid amide]"
2,200 nM,O=C(Nc1cccc(C(F)(F)F)c1)c1cncnc1NCc1ccncc1 [Example 2.1]
